Data from ChEMBL document CHEMBL1133426, “2-Substituted paullones: CDK1/cyclin B-inhibiting property and in vitro antiproliferative activity” (Bioorg Med Chem Lett, 2000).

How the values were obtained:
cells = assay type: functional; settings: Homo sapiens
Description: Inhibition of proliferation in NCI panel of 60 human tumor cell lines

HCT-116 = test: cells; assay type: functional; settings: Homo sapiens
Description: Inhibition of HCT116 colon cancer cell proliferation

Compound | GI50 (cells) [µM] | GI50 (HCT-116) [µM]
O=C1Cc2c([nH]c3ccc(C(F)(F)F)cc23)-c2cc(C#CC3(O)CCCCC3)ccc2N1 | 2 | 2.51
O=C1Cc2c([nH]c3ccc(C(F)(F)F)cc23)-c2cc(C#CCO)ccc2N1 | 12.6 | 3.16
O=C1Cc2c([nH]c3ccc(Br)cc23)-c2ccccc2N1 [KENPAULLONE] | 39.8 | 
